Measurements as given in patent publication US11137397B2, “Peptides for blocking IL1RAP protein-protein interaction and uses thereof for treatment of disease” (Albert Einstein College of Medicine, priority 2014, dated 2021).
No end group written: not given here.

Legend:
[1] = tested on: healthy bone marrow mononuclear cells (BMMNC); assay: Clonogenic assay in methylcellulose, healthy BMMNC; type: cell-based; details: 300 μM for 4 hours, colonies scored at 14 days
Protocol: FIG. 6. […] BMMNC were exposed to scrambled peptide (scrambled), or IL1RAP peptides (P1 and P2) for 4 hours at 300 μM concentrations or left untreated (UT) and evaluated for colony formation capacity in methylcellulose. Colonies were scored at 14 days. The results are expressed as total number of colonies/5×10^4 plated cells. Error bars represent the standard deviation of two replicates.
Cell viability was assessed at the indicated time points by trypan blue staining and manual cell counts. Viable cells were plated in methylcellulose (StemCell technologies H4434, or R&D HSC002SF) at 1000 cells/ml in 6-well plates for cell lines and at 5×10^4 cells/ml for bone marrow mononuclear cells (BMMNC). Cells were incubated at 37° C. and 5% CO2. Colonies were scored after 7 days or 14 days in culture for cell lines or primary cells, respectively.

THP-1 cells [2] = assay: Flow cytometric determination of cell death (Annexin V/DAPI); type: cell-based, human; details: 300 μM
Protocol: FIG. 8. IL1RAP blockade causes cell death of IL1RAP dependent human leukemia cells. THP1 cells were exposed to 300 μM IL1RAP peptides (P1 and P2), scrambled control peptide (scrambled), peptide buffer (vehicle) or left untreated (UT) and evaluated for cell viability determined by Annexin V/DAPI staining and flow cytometry. The results are expressed as percentage of total cells.
In order to determine viability after peptide treatment, 1×10^4 THP-1 cells were washed with PBS and mixed with pre-diluted PE-conjugated Annexin V (BD Pharmigen) and DAPI. Cells were stained at room temperature for 15 minutes and suspended in 0.2 ml of Annexin V-FLUOS incubation buffer (Roche) for analysis.

THP-1 cells [3] = assay: Cell morphology (cytospin, Diff-Quick staining); type: cell-based, human; details: THP-1 cells that remained viable after 24 hours of treatment
Protocol: FIG. 9. IL1RAP blockade changes in cell morphology of IL1RAP dependent human leukemia cells. THP1 cells were exposed to 100 μM IL1RAP peptide P2, scrambled control peptide (scrambled), peptide buffer (vehicle) or left untreated and evaluated for cell morphology.
1×10^4 THP-1 cells after treatment with peptides were rinsed with PBS and 0.1 ml of cell suspension was cytospun onto polylysine coated slides at minimum speed for 4 minutes in a cytocentrifuge (StatSpin Cytofuge). Slides were stained according to manufacturer's protocol using the Romanowsky staining Diff-Quick (IMEB) kit. Cells were imaged with an Axiovert 200M microscope (Zeiss) and Olympus SZ61 microscope.

inhibitory effects on healthy control bone marrow mononuclear cells (clonogenic potential) [1] | Substance | overall reduction in viability in comparison to the scrambled control peptide (THP-1 cells [2]) | cell morphology (THP-1 cells [3])
no inhibitory effects | AGDKDRLIVMENKPTHGID [Peptide P2, AGDKDRLIVMENKPTHGID] | 28% | –
no inhibitory effects | AGDKDRLIVMENKPTRPV [Peptide P1, AGDKDRLIVMENKPTRPV] | 14% | –
– | LKDMPGRPNERDKVAlTV (LKDMPGRPNERDKVAITV; not fully specified) [scrambled peptide] | – | maintained a blast-like morphology
